Experimental data: patent US20200031778A1, “NOVEL 5-SUBSTITUTED IMIDAZOLYLMETHYL DERIVATIVES” (Bayer CropScience Aktiengesellschaft, priority 2016, published 2020)

Assay: Log P by HPLC on reversed phase columns (EEC directive 79/831 Annex V.A8; methods [a], [b], [c])
Format: physicochemical
Outline: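 Reversed-phase HPLC with LC-UV detection, 10→95% acetonitrile linear gradient; aqueous eluent 0.1% formic acid [a], 0.001 M ammonium acetate, neutral [b], or 0.1% phosphoric acid [c]. Calibrated against C3–C16 alkan-2-ones of known Log P by retention-time linear interpolation; multiple values within a method separated by "+".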

LogP	Compound
2.86^[a]	N#Cc1cncn1CC(O)(c1cc(Cl)c(Br)cc1Cl)C1(F)CC1 (centres unmarked) [I-684]
2.17^[a]	CC(O)(Cn1cncc1F)c1cnc(Oc2ccc(C(F)F)cc2)cc1C(F)(F)F (centres unmarked) [I-230]
2.51^[a]	COc1ccc(C#CC(O)(Cn2cncc2C#N)C2(Cl)CC2)cc1 (centres unmarked) [I-321]
2.23^[a]	N#Cc1cncn1CC(O)(c1c(F)cc(F)cc1Cl)C1(F)CC1 (centres unmarked) [I-574]
2.04^[a]	N#Cc1ccc(C(O)(Cn2cncc2C#N)C2(F)CC2)c(Cl)c1 (centres unmarked) [I-389]
2.51^[a]	N#Cc1cncn1CC(O)(c1cc(F)cc(Br)c1)C1(F)CC1 (centres unmarked) [I-537]
2.03^[a]	N#Cc1ccc(Oc2ccc(C(O)Cn3cncc3Cl)c(Cl)c2)cc1 (centres unmarked) [I-06]
2.10^[a]	COc1ccc(C(O)(CC2CC2)Cn2cncc2C#N)c(Cl)n1 (centres unmarked) [I-548]
1.80^[a]	OC(Cn1cncc1F)c1ccc(Oc2ccc(C(F)F)cc2)nc1Cl (centres unmarked) [I-102]
2.78^[a]	OC(Cn1cncc1Br)c1ccc(Oc2ccc(Br)cc2)cc1Br (centres unmarked) [I-44]
2.44^[a]	CC(O)(Cn1cncc1Br)c1ccc(Oc2ccc(Cl)cc2)cc1F (centres unmarked) [I-178]
3.02^[a]	OC(Cn1cncc1Br)c1ccc(Oc2ccc(Br)cc2)cc1C(F)(F)F (centres unmarked) [I-26]
2.18^[a]	N#Cc1cncn1CC(O)(c1cc(F)c(F)cc1F)C1(F)CC1 (centres unmarked) [I-521]
2.52^[a]	N#Cc1cncn1CC(O)(CC1CC1)c1ccc(F)c(Cl)c1 (centres unmarked) [I-485]
2.21^[a]	OC(Cn1cncc1Cl)c1ccc(Oc2ccc(Cl)cn2)cc1C(F)(F)F (centres unmarked) [I-65]
1.99^[a]	OC(Cn1cncc1Cl)c1ccc(Oc2ccccc2)cc1F (centres unmarked) [I-30]
3.13^[a]	N#Cc1cncn1CC(O)c1cnc(Oc2ccc(C(F)(F)F)cc2)cc1Br (centres unmarked) [I-130]
2.92^[a]	CC(C)C(O)(Cn1cncc1C#N)c1ccc(Cl)cc1Cl (centres unmarked) [I-300]

LogP	Compound
2.51^[a]	CC(O)(Cn1cncc1F)c1cnc(Oc2ccc(OC(F)(F)F)cc2)cc1C(F)(F)F (centres unmarked) [I-241]
3.13^[a]	N#Cc1cncn1CC(O)c1ccc(Oc2ccc(C(F)(F)F)cc2)nc1C(F)(F)F (centres unmarked) [I-149]
3.09^[a]	N#Cc1cncn1CC(O)(C#Cc1ccc(C(F)(F)F)cc1)C1(Cl)CC1 (centres unmarked) [I-350]
2.46^[a]	N#Cc1cncn1CC(O)(c1ccc(F)cc1C(F)(F)F)C1(F)CC1 (centres unmarked) [I-382]
4.27^[a]	COC(Cn1cncc1C#N)c1ccc(Oc2ccc(C(F)(F)F)cc2)cc1C(F)(F)F (centres unmarked) [I-67]
3.23^[a]	CC(O)(Cn1cncc1C#N)c1cnc(Oc2ccc(C(F)(F)F)cc2)cc1C(F)(F)F (centres unmarked) [I-218]
2.42^[a]	C#Cc1ccc(C(O)(Cn2cncc2C#N)C2(Cl)CC2)c(F)c1 (centres unmarked) [I-659]
3.21^[a]	N#Cc1cncn1CC(O)c1ccc(Oc2ccc(Cl)cc2)cc1Br (centres unmarked) [I-59]
3.39^[a]	C[Si](C)(C)CC(O)(Cn1cncc1C#N)c1ccccc1Cl (centres unmarked) [I-306]
1.98^[a]	OC(Cn1cncc1F)c1ccc(Oc2ccc(C(F)(F)F)nc2)nc1C(F)(F)F (centres unmarked) [I-142]
2.65^[a]	N#Cc1cncn1CC(O)(c1cc(F)c(Cl)cc1Br)C1(F)CC1 (centres unmarked) [I-525]
3.23^[a]	CCCCCC(O)(Cn1cncc1C#N)c1ccccc1C(F)(F)F (centres unmarked) [I-346]
2.65^[a]	N#Cc1cncn1CC(O)(CC1CC1)c1cc(F)cc(Br)c1 (centres unmarked) [I-532]
3.76^[a]	COC(C)(Cn1cncc1Br)c1ccc(Oc2ccc(Cl)cc2)cc1C(F)(F)F (centres unmarked) [I-201]
2.66^[a]	CCCC(O)(Cn1cncc1C#N)c1ccccc1C(F)(F)F (centres unmarked) [I-313]
1.92^[a]	OC(Cn1cncc1Cl)c1ccc(Oc2ccc(Br)nc2)cc1Cl (centres unmarked) [I-77]
2.75^[a]	CCCC(O)(Cn1cncc1C#N)c1ccc(F)cc1Br (centres unmarked) [I-408]
3.06^[a]	CC(O)(Cn1cncc1Cl)c1ccc(Oc2ccc(Br)cc2)cc1Br (centres unmarked) [I-185]

Compound	LogP
N#Cc1cncn1CC(O)(c1ccc(Br)nc1Cl)C1(F)CC1 (centres unmarked) [I-683]	2.01^[a]
N#Cc1cncn1CC(O)(c1ccc(Cl)nc1F)C1(Cl)CC1 (centres unmarked) [I-554]	2.15^[a]
